Earlier results as cited in patent publication US20090285869A1, “SALT STABLE LECITHIN ORGANOGEL COMPOSITION” (Humco Holding Group, Inc., priority 2008, published 2009).

Conditions: non-ionic O/W and W/O emulsifiers; scale from 0 to 20

Approximate HLB value | Compound
~10.0 | Ceteareth-6
~13.4 | Ceteareth-12
~15.7 | Ceteareth-20
~16.2 | Ceteareth-25
~4.0 | Glyceryl Dilaurate
~9.0 | Oleth-5
~12.4 | Oleth-10
~15.5 | Oleth-20

Compound | Approximate HLB value
CCCCCCCCCCCC(=O)OCC(O)CO (stereo not drawn) [Glyceryl Laurate] | ~5.2
CCCCCCCC/C=C\CCCCCCCC(=O)OCC(O)CO (stereo not drawn) [Glyceryl Oleate] | ~2.8
CCCCCC[C@@H](O)C/C=C\CCCCCCCC(=O)OCC(O)CO (stereo partly drawn) [Glyceryl Ricinoleate] | ~2.6
CCCCCCCCCCCCCCCCCC(=O)OCC(O)CO (stereo not drawn) [Glyceryl Stearate] | ~4.0
